US6521665B1, “Method of treating insulin resistance” (priority 2001, dated 2003)
Like-named read-outs stand apart in the source and are kept apart here.

Columns and labels:
[1] = tested on: pancreatic islets; details: MacDonald, Fahien, Diabetes 37(7): 997-999 (1988); cited from earlier work
[2] = tested on: non-insulin dependent diabetic humans; details: for Mean plasma FFA / Mean plasma High Density Lipoprotein cholesterol (HDL) / Mean plasma Low Density Lipoprotein cholesterol (LDL) / Mean plasma Triglycerides / Mean plasma insulin / Mean serum glucose: NIDDM humans, orally 200 mg to 400 mg per day for 3 to 7 days
Description: Patients. Twelve non-insulin dependent diabetic humans were studied. Non-insulin Dependent Diabetes Mellitus (NIDDM) was diagnosed in the humans according to the World Health Organisation criteria and had been presented for minimum 5 years. The NIDDM humans were metabolically stable and had glucose levels more than 12.8 mmol/l. Six patients were taking oral sulphonylurea hypoglicemic drug glibenclamide (rec. INN). None of the humans were undergoing hypolipidemic therapy. The humans had no additive metabolic disorders.
Assays. Assays were used as described in the example 1 of the invention. Plasma insulin concentrations were determined by a double-antibody radioimmunoassay kit (Kabi Pharmacia Diagnostics, Uppsala, Sweden).
Procedure. Pharmaceutical grade succinic acid in a unit dosage form of 100 mg per gelatin capsule was used. All patients received succinic acid orally in daily dose of 200 mg to 400 mg per day for period of 3 to 7 days.
Plasma free fatty acid levels, insulin levels and serum glucose levels, plasma high density lipoprotein cholesterol (HDL-cholesterol), low density lipoprotein cholesterol (LDL-cholesterol) and triglycerides were measured in humans at zero day (before treatment ), at third and fifth days (treatment period), and at tenth, fifteen twentieth, twenty fifth thirtieth and fortieth days (after-treatment period).

[3] = tested on: healthy rats; details: no changes during thirty days of the experiment
Experimental: (§1) Assays. Plasma free fatty acids levels were determined by enzymatic method with a commercially available kit (Waho Chemicals Gmbh, Neuss, Germany) with Multistat 3 centrifugal analyzer (Instrumentation Laboratories, Lexington, USA).
(§2) Serum glucose concentrations were determined by the glucose oxidase method with a kit (Lachema, Slov.) with glucose analyzer (Beckman, Fullerton, Calif., USA).
(§3) Plasma insulin concentrations were determined by a double-antibody radioimmunoassay kit (Kabi Pharmacia Diagnostics, Uppsala, Sweden) using a rat insulin standard (Novo Research Institute, Bagsvard, Denmark).

[4] = tested on: streptozotocin-induced rats; details: for Mean plasma FFA / Mean plasma insulin / Mean serum glucose: experimental rats, 5 mg per kg s.c. daily for 7 days
Experimental: Animals. Male albino Wistar rats 8-10 weeks of age 200-250 grams of body weight were used. The rats were housed at the temperature of 18±21° C. on a 12 hour light-dark cycle. Rats were fed on a stock laboratory diet (59% carbohydrates; 17% protein; 3% fat; 21% minerals, water, cellulose) and allowed water ad libitum. The streptozotocin (Sigma, St. Louis, Mo., USA) solved in citrate buffer (0.05M, pH 5.5) was injected into tail vein of male albino Wistar rats in a dose of 35 mg per kg of animal body weight to induce decompensated insulin resistance. The rats with levels of glucose more than 14.0 mmol/l were used in the experiment one week after the streptozotocin injection.
as §1, §2, §3
Procedure. Streptozotocin-induced rats were assigned to two groups: a control rats (six rats) and experimental rats (fifteen rats). Experimental rats received daily injection (subcutaneously, 0.5 ml at 09.00 h) of water solution of succinic acid disodium salt hexahydrate in a dose of 5 mg per kg of body weight for period of 7 days.
Plasma free fatty acid levels (FFA), plasma Insulin levels and serum glucose levels were measured in rats by tail clipping method at zero day (before treatment), at third, fifth and seventh days (treatment period), and at tenth, fifteen, twentieth, twenty fifth and thirtieth days (after-treatment period).

[5] = day 10 (after treatment period)
[6] = day 10 (after-treatment period)
[7] = day 15 (after treatment period)
[8] = day 15 (after-treatment period)
[9] = day 20 (after treatment period)
[10] = day 20 (after-treatment period)
[11] = day 25 (after treatment period)
[12] = day 25 (after-treatment period)
[13] = day 30 (after treatment period)
[14] = day 30 (after-treatment period)
[15] = day 40 (after treatment period)
[16] = day 40 (after-treatment period)

O=C(O)CCC(=O)O [succinic acid]
insulin release [1]: did not stimulate insulin release | Mean plasma FFA ([2]; day 0 (before treatment)): 0.240 ± 0.044 mmol/L | Mean plasma High Density Lipoprotein cholesterol (HDL) ([2]; day 0 (before treatment)): 0.6 ± 0.4 mmol/L | Mean plasma Low Density Lipoprotein cholesterol (LDL) ([2]; day 0 (before treatment)): 4.8 ± 0.3 mmol/L | Mean plasma Triglycerides ([2]; day 0 (before treatment)): 2.7 ± 0.3 mmol/L | Mean plasma insulin ([2]; day 0 (before treatment)): 140 ± 23 pmol/L | Mean serum glucose ([2]; day 0 (before treatment)): 14.8 ± 1.4 mmol/L | Mean plasma FFA ([2]; day 3 (treatment period)): 0.250 ± 0.071 mmol/L | Mean plasma High Density Lipoprotein cholesterol (HDL) ([2]; day 3 (treatment period)): 0.7 ± 0.2 mmol/L | Mean plasma Low Density Lipoprotein cholesterol (LDL) ([2]; day 3 (treatment period)): 4.9 ± 0.4 mmol/L | Mean plasma Triglycerides ([2]; day 3 (treatment period)): 2.8 ± 0.6 mmol/L | Mean serum glucose ([2]; day 3 (treatment period)): 14.5 ± 1.4 mmol/L | Mean plasma FFA ([2]; day 5 (treatment period)): 0.195 ± 0.064 mmol/L | Mean plasma High Density Lipoprotein cholesterol (HDL) ([2]; day 5 (treatment period)): 0.8 ± 0.2 mmol/L | Mean plasma Low Density Lipoprotein cholesterol (LDL) ([2]; day 5 (treatment period)): 4.7 ± 0.2 mmol/L | Mean plasma Triglycerides ([2]; day 5 (treatment period)): 2.7 ± 0.3 mmol/L | Mean serum glucose ([2]; day 5 (treatment period)): 14.9 ± 1.5 mmol/L | Mean plasma High Density Lipoprotein cholesterol (HDL) [2, 5]: 1.2 ± 0.4 mmol/L | Mean plasma Low Density Lipoprotein cholesterol (LDL) [2, 5]: 4.3 ± 0.6 mmol/L | Mean plasma Triglycerides [2, 5]: 2.5 ± 0.3 mmol/L | Mean plasma FFA [2, 6]: 0.184 ± 0.035 mmol/L | Mean plasma insulin [2, 6]: 134 ± 27 pmol/L | Mean serum glucose [2, 6]: 13.0 ± 2.0 mmol/L | Mean plasma High Density Lipoprotein cholesterol (HDL) [2, 7]: 1.2 ± 0.3 mmol/L | Mean plasma Low Density Lipoprotein cholesterol (LDL) [2, 7]: 4.0 ± 0.3 mmol/L | Mean plasma Triglycerides [2, 7]: 2.4 ± 0.4 mmol/L | Mean plasma FFA [2, 8]: 0.157 ± 0.032 mmol/L | Mean serum glucose [2, 8]: 13.1 ± 0.8 mmol/L | Mean plasma High Density Lipoprotein cholesterol (HDL) [2, 9]: 1.2 ± 0.4 mmol/L | Mean plasma Low Density Lipoprotein cholesterol (LDL) [2, 9]: 3.5 ± 0.4 mmol/L | Mean plasma Triglycerides [2, 9]: 1.8 ± 0.4 mmol/L | Mean plasma FFA [2, 10]: 0.161 ± 0.034 mmol/L | Mean plasma insulin [2, 10]: 124 ± 17 pmol/L | Mean serum glucose [2, 10]: 11.0 ± 1.0 mmol/L | Mean plasma High Density Lipoprotein cholesterol (HDL) [2, 11]: 1.3 ± 0.2 mmol/L | Mean plasma Low Density Lipoprotein cholesterol (LDL) [2, 11]: 3.4 ± 0.3 mmol/L | Mean plasma Triglycerides [2, 11]: 1.3 ± 0.2 mmol/L | Mean plasma FFA [2, 12]: 0.113 ± 0.046 mmol/L | Mean serum glucose [2, 12]: 9.4 ± 1.3 mmol/L | Mean plasma High Density Lipoprotein cholesterol (HDL) [2, 13]: 1.5 ± 0.2 mmol/L | Mean plasma Low Density Lipoprotein cholesterol (LDL) [2, 13]: 3.4 ± 0.2 mmol/L | Mean plasma Triglycerides [2, 13]: 1.1 ± 0.1 mmol/L | Mean plasma FFA [2, 14]: 0.086 ± 0.035 mmol/L | Mean plasma insulin [2, 14]: 118 ± 21 pmol/L | Mean serum glucose [2, 14]: 7.1 ± 0.6 mmol/L | Mean plasma High Density Lipoprotein cholesterol (HDL) [2, 15]: 1.3 ± 0.2 mmol/L | Mean plasma Low Density Lipoprotein cholesterol (LDL) [2, 15]: 3.5 ± 0.4 mmol/L | Mean plasma Triglycerides [2, 15]: 1.4 ± 0.2 mmol/L | Mean plasma FFA [2, 16]: 0.100 ± 0.022 mmol/L | Mean plasma insulin [2, 16]: 112 ± 14 pmol/L | Mean serum glucose [2, 16]: 5.8 ± 1.1 mmol/L | change of plasma triglycerides, LDL cholesterol and HDL cholesterol ([2]; non-insulin dependent diabetic humans, especially in the after-treatment period): reducing plasma triglycerides and low density lipoprotein cholesterol, and increasing plasma high density lipoprotein cholesterol | insulin sensitivity ([2]; non-insulin dependent diabetic humans, maximal efficacy in the after-treatment period): improving in insulin sensitivity

O.O.O.O.O.O.O=C([O-])CCC(=O)[O-].[Na+].[Na+] [succinic acid disodium salt hexahydrate]
plasma free fatty acid levels [3]: 0.08 ± 0.03 mmol/L | plasma insulin levels [3]: 3.4 ± 0.6 ng/mL | serum glucose [3]: 4.8 ± 0.4 mmol/L | Mean plasma FFA ([4]; day 0 (before treatment)): 0.35 ± 0.03 mmol/L | Mean plasma insulin ([4]; day 0 (before treatment)): 11.0 ± 0.7 ng/mL | Mean serum glucose ([4]; day 0 (before treatment)): 15.7 ± 2.6 mmol/L | Mean plasma FFA ([4]; day 3 (treatment period)): 0.32 ± 0.04 mmol/L | Mean plasma insulin ([4]; day 3 (treatment period)): 10.2 ± 1.1 ng/mL | Mean serum glucose ([4]; day 3 (treatment period)): 15.8 ± 3.1 mmol/L | Mean plasma FFA ([4]; day 5 (treatment period)): 0.25 ± 0.06 mmol/L | Mean plasma insulin ([4]; day 5 (treatment period)): 7.4 ± 0.8 ng/mL | Mean serum glucose ([4]; day 5 (treatment period)): 13.0 ± 2.4 mmol/L | Mean plasma FFA ([4]; day 7 (treatment period)): 0.18 ± 0.05 mmol/L | Mean plasma insulin ([4]; day 7 (treatment period)): 4.2 ± 0.7 ng/mL | Mean serum glucose ([4]; day 7 (treatment period)): 10.0 ± 1.2 mmol/L | Mean plasma FFA [4, 6]: 0.20 ± 0.06 mmol/L | Mean plasma insulin [4, 6]: 3.1 ± 0.8 ng/mL | Mean serum glucose [4, 6]: 10.1 ± 2.0 mmol/L | Mean plasma FFA [4, 8]: 0.15 ± 0.03 mmol/L | Mean plasma insulin [4, 8]: 2.4 ± 0.4 ng/mL | Mean serum glucose [4, 8]: 8.1 ± 1.1 mmol/L | Mean plasma FFA [4, 10]: 0.10 ± 0.05 mmol/L | Mean plasma insulin [4, 10]: 2.1 ± 0.4 ng/mL | Mean serum glucose [4, 10]: 6.6 ± 0.8 mmol/L | Mean plasma FFA [4, 12]: 0.11 ± 0.04 mmol/L | Mean plasma insulin [4, 12]: 2.0 ± 0.3 ng/mL | Mean serum glucose [4, 12]: 5.7 ± 0.5 mmol/L | Mean plasma FFA [4, 14]: 0.13 ± 0.04 mmol/L | Mean plasma insulin [4, 14]: 2.1 ± 0.3 ng/mL | Mean serum glucose [4, 14]: 5.4 ± 0.7 mmol/L | insulin sensitivity ([4]; insulin resistant rats in comparison with control insulin resistant rats, maximal efficacy in the after-treatment period): significant improving in insulin sensitivity
